Where two headings read alike, the source gives them in different places. Where a SMILES comes first, the peptide text is derived from it. The star is where a group is joined. Cbz = O=C(OCc1ccccc1)*
Assays:
[1] = tested on: human iPSC neurons and astrocytes treated with 5 μM sAβ42s; test: Focused small molecule screen, double culture (neuron, astrocyte), rescue from sAβ42s toxicity, high content imaging; format: cell-based; conditions: double culture, 5 μM sAβ42s; for percent rescue from sAβ42s toxicity at 6.25 µM / percent rescue from sAβ42s toxicity at 12.5 µM / percent rescue from sAβ42s toxicity at 25 µM / percent rescue from sAβ42s toxicity at 50 µM: Homo sapiens, iPSC
Description: (§1) FIGS. 11A-11D show synapse % rescue versus MAP2% rescue (FIGS. 11A-11B) and beta III tubulin % rescue versus MAP2% rescue (FIGS. 11C-11D), in neurons and astrocytes (FIGS. 11A and 11C) or neurons, astrocytes, and microglia (FIGS. 11B and 11D) treated with 5 μM sAβ42s and small molecules from a focused screen of known neuroprotective agents at multiple concentrations (50 μM, 25 μM, 12.5 μM and 6.25 μM (double culture), 50 μM, 12.5 μM, 3.1 μM and 0.78 μM (triple culture). Small molecules that prevented toxicity in dendrites (MAP2), synapses (Synapsin 1/2), cell count (CUX2), or axons ([…]) at or above 30% were considered hits (red dotted line).
Neurons from both NSC lines were evaluated by immunofluorescence staining. Briefly, cells were fixed with 4% PFA and 4% sucrose at room temperature for 20 minutes using Bravo automation. Fixed cells were then washed 2 times with PBS using Biotek 406 microplate washer (Beckman Coulter), followed by permeabilization and blocking by incubation with a solution containing 1×PBS, 0.1% Triton X-100, 2% donkey serum, and 1% BSA at room temperature for 30 minutes. Blocking solution was removed and cells were incubated with primary antibodies in blocking solution overnight at 4° C. After washing 6 times with PBS on Biotek 406 cell plate washer (Beckman Coulter), cells were then incubated with fluorophore-conjugated secondary antibodies for 1 hour at room temperature in the dark to avoid photobleaching. Cells were then washed 6 more times in with PBS before imaging. Fluorescent images were captured using IN Cell 6000 confocal microscope (GE Healthcare Life Sciences). The image analysis was performed with IN Cell 6000 analysis software.
Prior to experimentation, media volume in wells containing neurons was equalized with liquid handling automation (Bravo) in order to ensure precise control of concentrations. All Aβ42 oligomers, anti-Aβ, small molecules, inflammatory cytokines were prepared at 10× concentration and added to Neuronal Culture Media at an appropriate volume. For the repeated dosing experiments, the media were refreshed 50% at each dosing first, before adding Aβ42 oligomers, and/or anti-Aβ antibody at the specified final concentration.
(§2) In double (neuron, astrocyte) and triple (neuron, astrocyte, microglia) cultures, each small molecule listed in Table 1 was tested in the AD model paradigm at up to four concentrations. Molecules that characterized ≥30% rescue in any of the four measurements of dendrites area (MAP2), synapses count (synapsin 1/2), or cell count (CUX2), or axon area (Beta III Tubulin; “BT3”)) were classified as hits (FIGS. 11A-11D, Table 2, and Table 3).

[2] = tested on: human iPSC neurons, astrocytes and microglia treated with 5 μM sAβ42s; test: Focused small molecule screen, triple culture (neuron, astrocyte, microglia), rescue from sAβ42s toxicity; format: cell-based; conditions: for percent rescue from sAβ42s toxicity at 12.5 µM / percent rescue from sAβ42s toxicity at 50 µM: Homo sapiens, iPSC
Description: as §1
Frozen cells were thawed and immediately seeded at a density of 8,000 cells/well of a 384-well plate onto 8-week old neuron-astrocyte co-culture in Microglia media (BrainPhys™ neuronal media (Stem Cell Technologies) supplemented with 1× B27 with vitamin A, 1×N2 Plus Media Supplement (R&D Systems), 20 ng/mL BDNF, 20 ng/mL GDNF, 1 mM creatine, 200 nM L-ascorbic acid, 1 μg/mL mouse laminin, 0.5 mM GlutaMAX™ (Thermofisher), 0.5× penicillin-streptomycin, 1× normocin, 5 ng/mL TGF-β, 100 ng/mL human IL-34, 1.5 μg/mL cholesterol, 1 ng/mL gondoic acid, 100 ng/mL oleic acid, 460 μM thioglycerol, 1× insulin-transferrin-selenium, 25 ng/mL rhM-CSF, 5.4 μg/mL human insulin solution).
as §2

[3] = 25 μM compound, read-out: % B3T rescue
[4] = 25 μM compound, read-out: % Cux2 rescue
[5] = 25 μM compound, read-out: % MAP2 rescue
[6] = 25 μM compound, read-out: % Synapse rescue
[7] = 50 μM compound, read-out: % B3T rescue
[8] = 50 μM compound, read-out: % Cux2 rescue
[9] = 50 μM compound, read-out: % MAP2 rescue
[10] = 50 μM compound, read-out: % Synapse rescue
[11] = 50.00 μM compound, read-out: % B3T rescue
[12] = 50.00 μM compound, read-out: % MAP2 rescue
[13] = 50.00 μM compound, read-out: % Synapse rescue

SMILES: O=C(Nc1cccc(Br)c1)c1cccc(S(=O)(=O)N2CCCCCC2)c1 [AK 7]
- % B3T rescue ([1]; 50 μM compound): 42%
- % Cux2 rescue ([1]; 50 μM compound): 0%
- % MAP2 rescue ([1]; 50 μM compound): −17%
- % Synapse rescue ([1]; 50 μM compound): −5%
- % B3T rescue ([2]; 0.78 μM compound): 79%
- % MAP2 rescue ([2]; 0.78 μM compound): 1%
- % Synapse rescue ([2]; 0.78 μM compound): 3%
- % B3T rescue ([2]; 3.13 μM compound): 77%
- % MAP2 rescue ([2]; 3.13 μM compound): 18%
- % Synapse rescue ([2]; 3.13 μM compound): 13%
- % B3T rescue ([2]; 12.50 μM compound): 81%
- % MAP2 rescue ([2]; 12.50 μM compound): 53%
- % Synapse rescue ([2]; 12.50 μM compound): 42%
- % B3T rescue ([2]; 50.00 μM compound): 56%
- % MAP2 rescue ([2]; 50.00 μM compound): 28%
- % Synapse rescue ([2]; 50.00 μM compound): 17%

SMILES: O=C1Nc2ccc3ncsc3c2/C1=C/Nc1ccc(S(=O)(=O)Nc2ccccn2)cc1 [GW8510]
- % B3T rescue ([1]; 6.25 μM compound): 32%
- % Cux2 rescue ([1]; 6.25 μM compound): −1%
- % MAP2 rescue ([1]; 6.25 μM compound): 48%
- % Synapse rescue ([1]; 6.25 μM compound): 52%
- % B3T rescue ([1]; 12.5 μM compound): 20%
- % Cux2 rescue ([1]; 12.5 μM compound): 16%
- % MAP2 rescue ([1]; 12.5 μM compound): 37%
- % Synapse rescue ([1]; 12.5 μM compound): 38%
- % B3T rescue ([1]; 25 μM compound): 31%
- % Cux2 rescue ([1]; 25 μM compound): −18%
- % MAP2 rescue ([1]; 25 μM compound): 37%
- % Synapse rescue ([1]; 25 μM compound): 38%
- % B3T rescue ([1]; 50 μM compound): 47%
- % Cux2 rescue ([1]; 50 μM compound): −22%
- % MAP2 rescue ([1]; 50 μM compound): 52%
- % Synapse rescue ([1]; 50 μM compound): 49%
- % B3T rescue ([2]; 0.78 μM compound): 45%
- % MAP2 rescue ([2]; 0.78 μM compound): −4%
- % Synapse rescue ([2]; 0.78 μM compound): 8%
- % B3T rescue ([2]; 3.13 μM compound): 70%
- % MAP2 rescue ([2]; 3.13 μM compound): 15%
- % Synapse rescue ([2]; 3.13 μM compound): 25%
- % B3T rescue ([2]; 12.50 μM compound): 68%
- % MAP2 rescue ([2]; 12.50 μM compound): 28%
- % Synapse rescue ([2]; 12.50 μM compound): 32%
- % B3T rescue ([2]; 50.00 μM compound): 63%
- % MAP2 rescue ([2]; 50.00 μM compound): −8%
- % Synapse rescue ([2]; 50.00 μM compound): −15%

SMILES: Cc1ccc(S(=O)(=O)/C=C/C#N)cc1 [BAY 11-7082]
- % B3T rescue ([1]; 6.25 μM compound): 38%
- % Cux2 rescue ([1]; 6.25 μM compound): 70%
- % MAP2 rescue ([1]; 6.25 μM compound): 34%
- % Synapse rescue ([1]; 6.25 μM compound): −2%
- % B3T rescue ([1]; 12.5 μM compound): 31%
- % Cux2 rescue ([1]; 12.5 μM compound): 85%
- % MAP2 rescue ([1]; 12.5 μM compound): 36%
- % Synapse rescue ([1]; 12.5 μM compound): −3%
- % B3T rescue ([1]; 25 μM compound): 14%
- % Cux2 rescue ([1]; 25 μM compound): 82%
- % MAP2 rescue ([1]; 25 μM compound): 17%
- % Synapse rescue ([1]; 25 μM compound): −13%
- % B3T rescue ([2]; 50.00 μM compound): 44%
- % MAP2 rescue ([2]; 50.00 μM compound): 21%
- % Synapse rescue ([2]; 50.00 μM compound): −1%

SMILES: CC(C)C[C@@H](C=O)NC(=O)[C@H](CC(C)C)NC(=O)[C@H](CC(C)C)NC(=O)OCc1ccccc1 [MG-132] (Cbz-Leu-Leu-Leu-aldehyde)
- percent rescue from sAβ42s toxicity at 6.25 µM ([1]; 6.25 μM compound, read-out: % B3T rescue): -3%
- percent rescue from sAβ42s toxicity at 6.25 µM ([1]; 6.25 μM compound, read-out: % Cux2 rescue): 80%
- percent rescue from sAβ42s toxicity at 6.25 µM ([1]; 6.25 μM compound, read-out: % MAP2 rescue): 18%
- percent rescue from sAβ42s toxicity at 6.25 µM ([1]; 6.25 μM compound, read-out: % Synapse rescue): -6%
- percent rescue from sAβ42s toxicity at 12.5 µM ([1]; 12.5 μM compound, read-out: % B3T rescue): 7%
- percent rescue from sAβ42s toxicity at 12.5 µM ([1]; 12.5 μM compound, read-out: % Cux2 rescue): 87%
- percent rescue from sAβ42s toxicity at 12.5 µM ([1]; 12.5 μM compound, read-out: % MAP2 rescue): 24%
- percent rescue from sAβ42s toxicity at 12.5 µM ([1]; 12.5 μM compound, read-out: % Synapse rescue): 4%
- percent rescue from sAβ42s toxicity at 25 µM [1, 3]: 30%
- percent rescue from sAβ42s toxicity at 25 µM [1, 4]: 91%
- percent rescue from sAβ42s toxicity at 25 µM [1, 5]: 26%
- percent rescue from sAβ42s toxicity at 25 µM [1, 6]: 8%
- percent rescue from sAβ42s toxicity at 50 µM [1, 7]: 57%
- percent rescue from sAβ42s toxicity at 50 µM [1, 8]: 90%
- percent rescue from sAβ42s toxicity at 50 µM [1, 9]: 25%
- percent rescue from sAβ42s toxicity at 50 µM [1, 10]: 4%
- percent rescue from sAβ42s toxicity at 12.5 µM ([2]; 12.50 μM compound, read-out: % B3T rescue): 35%
- percent rescue from sAβ42s toxicity at 12.5 µM ([2]; 12.50 μM compound, read-out: % MAP2 rescue): 18%
- percent rescue from sAβ42s toxicity at 12.5 µM ([2]; 12.50 μM compound, read-out: % Synapse rescue): -7%
- percent rescue from sAβ42s toxicity at 50 µM [2, 11]: 46%
- percent rescue from sAβ42s toxicity at 50 µM [2, 12]: 25%
- percent rescue from sAβ42s toxicity at 50 µM [2, 13]: -11%

SMILES: O=c1cc(-c2ccc(O)c(O)c2)oc2cc(O)cc(O)c12 [Luteolin]
- percent rescue from sAβ42s toxicity at 25 µM [1, 3]: 29%
- percent rescue from sAβ42s toxicity at 25 µM [1, 4]: 12%
- percent rescue from sAβ42s toxicity at 25 µM [1, 5]: 26%
- percent rescue from sAβ42s toxicity at 25 µM [1, 6]: 13%
- percent rescue from sAβ42s toxicity at 50 µM [1, 7]: 66%
- percent rescue from sAβ42s toxicity at 50 µM [1, 8]: 19%
- percent rescue from sAβ42s toxicity at 50 µM [1, 9]: 55%
- percent rescue from sAβ42s toxicity at 50 µM [1, 10]: 37%
- percent rescue from sAβ42s toxicity at 50 µM [2, 11]: 91%
- percent rescue from sAβ42s toxicity at 50 µM [2, 12]: 73%
- percent rescue from sAβ42s toxicity at 50 µM [2, 13]: 75%

From US20230014181A1, “CULTURE SYSTEM AND METHODS FOR IMPROVED MODELING OF NEUROLOGICAL CONDITIONS” (Genentech, Inc., priority 2021, published 2023)
